Results: patent US20260207618A1, “PYRIMIDINE CARBOXAMIDE COMPOUNDS” (Acrivon Therapeutics, Inc., priority 2022, published 2026)
pEC50, pIC50: −log10 of the molar value.

Tests used:
[1] = molecular target: T1, recombinant human Wee1A kinase (Homo sapiens, UniProt P30291); assay: LanthaScreen Europium (Eu) Kinase Binding Assay, Wee1A kinase (TR-FRET tracer displacement); conditions: 30 nM tracer 178, 5 nM Wee1A kinase, 60 minutes at room temperature
T1 construct: full length Wee1A kinase was expressed by baculovirus in insect cells; purchased Invitrogen PV3817; host or cells: insect cells (baculovirus)
T1 sequence (P30291 whole entry): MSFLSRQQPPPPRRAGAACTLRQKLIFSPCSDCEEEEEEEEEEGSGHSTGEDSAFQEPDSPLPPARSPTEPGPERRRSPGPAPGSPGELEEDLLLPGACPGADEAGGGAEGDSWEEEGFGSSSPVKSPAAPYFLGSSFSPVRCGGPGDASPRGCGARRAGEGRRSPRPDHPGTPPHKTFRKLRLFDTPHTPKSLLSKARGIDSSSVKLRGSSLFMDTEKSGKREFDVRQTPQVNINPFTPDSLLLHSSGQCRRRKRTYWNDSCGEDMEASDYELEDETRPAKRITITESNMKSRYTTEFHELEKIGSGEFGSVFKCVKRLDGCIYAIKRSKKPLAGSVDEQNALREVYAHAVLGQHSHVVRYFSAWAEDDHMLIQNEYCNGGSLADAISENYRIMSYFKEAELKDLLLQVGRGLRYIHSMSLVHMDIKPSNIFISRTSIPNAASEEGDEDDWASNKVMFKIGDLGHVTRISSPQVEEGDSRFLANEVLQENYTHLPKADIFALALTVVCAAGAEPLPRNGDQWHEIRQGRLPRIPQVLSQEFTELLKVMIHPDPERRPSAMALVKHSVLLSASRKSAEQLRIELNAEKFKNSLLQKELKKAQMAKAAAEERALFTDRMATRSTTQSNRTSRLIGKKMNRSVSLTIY

[2] = system: Cdk1 phosphorylated on tyrosine 15; assay: pCDK1 Y15 AlphaLISA target engagement assay in ACHN cells; format: cell-based; conditions: Homo sapiens, treated for 4 h, 7 to 5000 nM, read-out: TE Weel (ALISA): AlphaLISA CDK1 Tyr15 Phosphorylation EC50
Experimental: (§1) ACHN renal cell carcinoma cell line (ATCC) was cultured in Minimum Essential Medium Eagle supplemented with 10% fetal calf serum (Sigma), 1% Penicillin-Streptomycin and 10 mM HEPES buffer (HyClone). Cell cultures were kept in a humidified incubator at 37° C. and 5% CO2. Cells were routinely tested for Mycoplasma contamination.
For target engagement assessment, quantification of Cdk1 phosphorylated on tyrosine 15 was detected using pCDK1 Y^15 AlphaLISA assay (Perkin Elmer). ACHN cells were seeded into tissue culture treated 96-well plates (VWR) to a density of 20,000 cells per well. 24 h post seeding cells were treated for 4 h with compounds at concentrations ranging from 7 to 5000 nM. Cells were washed with PBS and lysed in 50 μl alphaLISA lysis buffer before freezing at −80° C. 10 μl of the lysate was transferred to 384 well plates and incubated with alphaLISA donor and acceptor beads according to the manufacturer's instructions. Dose response curves and EC50 values were calculated and visualized using GraphPad Prism version 9.

[3] = system: Cdk1 phosphorylated on tyrosine 15; assay: High-content imaging of pCdk1 Y15 by immunofluorescence in ACHN cells; format: cell-based; conditions: Homo sapiens, high-content imaging (IF), 4 h, 7 to 5000 nM, read-out: CDK1 Tyr15 Phosphorylation EC50 (IC50)
Procedure, shortened: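 ACHN cells were treated with compounds at 7–5000 nM for 4 h, then fixed, permeabilised and immunostained for pCDK1 Y15, with DAPI as nuclear counterstain. Automated imaging gave the percentage of cells with nuclear pCDK1 Y15 positivity relative to DMSO control. EC50 values came from dose-response curves.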

[4] = system: ACHN cells; assay: Cell Titer Glo viability assay in ACHN cells; format: cell-based; conditions: Homo sapiens, 144 h, 0.17 to 10,000 nM
Experimental: as §1
ACHN cells were seeded at a density of 400 cells per well in tissue culture treated 384 well plates (Corning Costar). After overnight incubation, cells were treated with drugs at concentrations ranging from 0.17 to 10,000 nM. Viability compared to untreated control was assessed at 144 h using Cell Titer Glo assay 2.0 (Promega).

Row | pIC50 [1] | pEC50 [2] | pEC50 [3] | pEC50 [4] | Compound
1 | 7.00 to 8.00 | < 5.60 | 6.30 to 7.00 | 5.30 to 6.00 | COc1nc(Nc2cnn(C)c2)ncc1C(=O)Nc1c(Cl)cccc1Cl [Compound 182]
2 | ≥ 8.00 | 6.00 to 6.30 | ≥ 7.00 | 6.00 to 6.60 | COc1nc(Nc2ccc(O[C@@H]3CCNC3)c(C)c2)ncc1C(=O)Nc1c(Cl)cccc1Cl [Compound 178]
